18 compounds from US12655125B2 (SIRONAX LTD., priority 2020, dated 2026) can be followed below.

As a reminder, the EC50 is the concentration needed to bring the measured effect to its halfway point.

The structures appear in SMILES notation.

This assay deals with HT-29 cells. Briefly: HT29 Cells 0FBS Assay In Vitro (TNF-α/SMAC mimetic/zVAD-FMK induced necroptosis, CellTiter-Glo cell viability). It is filed as cell-based. As to conditions: Homo sapiens; HT-29 cells, FBS free medium, TNF-α (10 ng/ml), SMAC mimetic (6 uM), zVAD-FMK (10 μM), 20 hours; geometric mean EC50; read-out: Cell activity (EC50) of Compounds 117-281. In a few lines: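 HT-29 cells (5,000/well, seeded overnight) in serum-free McCoy's 5A were stimulated with TNF-α 10 ng/ml, SMAC mimetic 6 μM and zVAD-FMK 10 μM to induce necroptosis. Compound added as 10-point 3-fold series for 20 h at 37° C. CellTiter-Glo luminescence gives viability; EC50 is geometric mean of duplicate dose-responses.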
On the technique in general: Cellular ATP, detected with luciferase, serves as a proxy for viable cell number.
On to `Cn1nc(CO)nc1-c1cc(OC2CN(C(=O)N3N=CC[C@H]3c3cc(F)cc(F)c3)C2)c(F)cn1` [compound 202, (S)-(5-(3,5-difluorophenyl)-4,5-dihydro-1H-pyrazol-1-yl)(3-((5-fluoro-2-(3-(hydroxymethyl)-1-methyl-1H-1,2,4-triazol-5-yl)pyridin-4-yl)oxy)azetidin-1-yl)methanone], for which the concentration for a half-maximal effect (EC50) was 0.1 to 100 nM.

As for `CSc1c(C)nn(-c2cc(OC3CN(C(=O)N4N=CC[C@H]4c4cc(F)cc(F)c4)C3)c(F)cn2)c1C` [compound 203, (S)-(5-(3,5-difluorophenyl)-4,5-dihydro-1H-pyrazol-1-yl)(3-((2-(3,5-dimethyl-4-(methylthio)-1H-pyrazol-1-yl)-5-fluoropyridin-4-yl)oxy)azetidin-1-yl)methanone], the EC50 was in the range of 0.1 to 100 nM.

As to `Cc1nn(-c2cc(OC3CN(C(=O)N4N=CC[C@H]4c4cc(F)cc(F)c4)C3)c(F)cn2)c(C)c1[S+](C)[O-]` (stereo partly drawn) [compound 204, ((S)-5-(3,5-difluorophenyl)-4,5-dihydro-1H-pyrazol-1-yl)(3-((2-(3,5-dimethyl-4-(methylsulfinyl)-1H-pyrazol-1-yl)-5-fluoropyridin-4-yl)oxy)azetidin-1-yl)methanone], the EC50 was in the range of 0.1 to 100 nM.

For `Cc1n[nH]c(N)c1-c1cc(OC2CN(C(=O)N3N=CC[C@H]3c3cc(F)cc(F)c3)C2)c(F)cn1` [compound 205, (S)-(3-((2-(5-amino-3-methyl-1H-pyrazol-4-yl)-5-fluoropyridin-4-yl)oxy)azetidin-1-yl)(5-(3,5-difluorophenyl)-4,5-dihydro-1H-pyrazol-1-yl)methanone], the concentration for a half-maximal effect (EC50) fell in the range of 0.1 to 100 nM.

As to `Cc1c(-c2cc(OC3CN(C(=O)N4N=CC[C@H]4c4cc(F)cc(F)c4)C3)c(F)cn2)c(C)n(C)c1N` [compound 206, (S)-(3-((2-(5-amino-1,2,4-trimethyl-1H-pyrrol-3-yl)-5-fluoropyridin-4-yl)oxy)azetidin-1-yl)(5-(3,5-difluorophenyl)-4,5-dihydro-1H-pyrazol-1-yl)methanone], the EC50 lay within 0.1 to 100 nM.

For `Cc1c(N)nn(C)c1-c1ncc(F)c(OC2CN(C(=O)N3N=CC[C@H]3c3cc(F)cc(F)c3)C2)n1` [compound 207, (S)-(3-((2-(3-amino-1,4-dimethyl-1H-pyrazol-5-yl)-5-fluoropyrimidin-4-yl)oxy)azetidin-1-yl)(5-(3,5-difluorophenyl)-4,5-dihydro-1H-pyrazol-1-yl)methanone], the EC50 is 0.1 to 100 nM.

As for `Cc1cnn(C)c1-c1cnc(F)c(OC2CN(C(=O)N3N=CC[C@H]3c3cc(F)cc(F)c3)C2)c1` [compound 208, (S)-(5-(3,5-difluorophenyl)-4,5-dihydro-1H-pyrazol-1-yl)(3-((5-(1,4-dimethyl-1H-pyrazol-5-yl)-2-fluoropyridin-3-yl)oxy)azetidin-1-yl)methanone], the EC50 is 0.1 to 100 nM.

Regarding `Cc1nn(C)c(-c2cc(OC3CN(C(=O)N4N=CC[C@H]4c4cc(F)cc(F)c4)C3)c(F)cn2)c1N` [compound 209, (S)-(3-((2-(4-amino-1,3-dimethyl-1H-pyrazol-5-yl)-5-fluoropyridin-4-yl)oxy)azetidin-1-yl)(5-(3,5-difluorophenyl)-4,5-dihydro-1H-pyrazol-1-yl)methanone], the EC50 fell in the range of 0.1 to 100 nM.

As to `Cc1nn(C)c(N)c1-c1cc(OC2CN(C(=O)N3N=CC[C@H]3c3cc(F)cc(F)c3)C2)c(F)cn1` [compound 210, (S)-(3-((2-(5-amino-1,3-dimethyl-11H-pyrazol-4-yl)-5-fluoropyridin-4-yl)oxy)azetidin-1-yl)(5-(3,5-difluorophenyl)-4,5-dihydro-1H-pyrazol-1-yl)methanone], the EC50 fell in the range of 0.1 to 100 nM.

On to `Cc1c(CN)nn(C)c1-c1cc(OC2CN(C(=O)N3N=CC[C@H]3c3cc(F)cc(F)c3)C2)c(F)cn1` [compound 211, (S)-(3-((2-(3-(aminomethyl)-1,4-dimethyl-11H-pyrazol-5-yl)-5-fluoropyridin-4-yl)oxy)azetidin-1-yl)(5-(3,5-difluorophenyl)-4,5-dihydro-1H-pyrazol-1-yl)methanone], for which the concentration giving a half-maximal response (EC50) is 0.1 to 100 nM.

Regarding `Cc1c(NCCO)nn(C)c1-c1cc(OC2CN(C(=O)N3N=CC[C@H]3c3cc(F)cc(F)c3)C2)c(F)cn1` [compound 212, (S)-(5-(3,5-difluorophenyl)-4,5-dihydro-1H-pyrazol-1-yl)(3-((5-fluoro-2-(3-((2-hydroxyethyl)amino)-1,4-dimethyl-1H-pyrazol-5-yl)pyridin-4-yl)oxy)azetidin-1-yl)methanone], the EC50 lay within 0.1 to 100 nM.

Regarding `Cc1c(N2CC(O)C2)nn(C)c1-c1cc(OC2CN(C(=O)N3N=CC[C@H]3c3cc(F)cc(F)c3)C2)c(F)cn1` [compound 213, (S)-(5-(3,5-difluorophenyl)-4,5-dihydro-1H-pyrazol-1-yl)(3-((5-fluoro-2-(3-(3-hydroxyazetidin-1-yl)-1,4-dimethyl-1H-pyrazol-5-yl)pyridin-4-yl)oxy)azetidin-1-yl)methanone], the EC50 was in the range of 0.1 to 100 nM.

`Cc1nn(-c2cc(OC3CN(C(=O)N4N=CC[C@H]4c4cc(F)cc(F)c4)C3)c(F)cn2)c(C)c1C(=O)NCCO` [compound 214, (S)-1-(4-((1-(5-(3,5-difluorophenyl)-4,5-dihydro-1H-pyrazole-1-carbonyl)azetidin-3-yl)oxy)-5-fluoropyridin-2-yl)-N-(2-hydroxyethyl)-3,5-dimethyl-1H-pyrazole-4-carboxamide]: the concentration for a half-maximal effect (EC50) lay in the range of 0.1 to 100 nM.

Turning to `Cc1c(N)nn(C)c1-c1ccc(F)c(OC2CN(C(=O)N3N=CC[C@H]3c3cc(F)cc(F)c3)C2)n1` [compound 215, (S)-(3-((6-(3-amino-1,4-dimethyl-1H-pyrazol-5-yl)-3-fluoropyridin-2-yl)oxy)azetidin-1-yl)(5-(3,5-difluorophenyl)-4,5-dihydro-1H-pyrazol-1-yl)methanone], the EC50 lay within 0.1 to 100 nM.

In the case of `Cc1nn(-c2cc(OC3CN(C(=O)N4N=CC[C@H]4c4cc(F)cc(F)c4)C3)c(F)cn2)c(C)c1C(=O)NC1CCOCC1` [compound 216, (S)-1-(4-((1-(5-(3,5-difluorophenyl)-4,5-dihydro-1H-pyrazole-1-carbonyl)azetidin-3-yl)oxy)-5-fluoropyridin-2-yl)-3,5-dimethyl-N-(tetrahydro-2H-pyran-4-yl)-1H-pyrazole-4-carboxamide], the EC50 is 0.1 to 100 nM.

As to `Cc1nn(-c2cc(OC3CN(C(=O)N4N=CC[C@H]4c4cc(F)cc(F)c4)C3)c(F)cn2)c(C)c1C(=O)NC1COC1` [compound 217, (S)-1-(4-((1-(5-(3,5-difluorophenyl)-4,5-dihydro-1H-pyrazole-1-carbonyl)azetidin-3-yl)oxy)-5-fluoropyridin-2-yl)-3,5-dimethyl-N-(oxetan-3-yl)-1H-pyrazole-4-carboxamide], the concentration for a half-maximal effect (EC50) was in the range of 0.1 to 100 nM.

With `Cc1c(-c2cc(OC3CN(C(=O)N4N=CC[C@H]4c4cc(F)cc(F)c4)C3)c(F)cn2)nn(C)c1N` [compound 218, (S)-(3-((2-(5-amino-1,4-dimethyl-1H-pyrazol-3-yl)-5-fluoropyridin-4-yl)oxy)azetidin-1-yl)(5-(3,5-difluorophenyl)-4,5-dihydro-1H-pyrazol-1-yl)methanone], the EC50 is 0.1 to 100 nM.

As to `Cc1cn(C)nc1-c1cc(OC2CN(C(=O)N3N=CC[C@H]3c3cc(F)cc(F)c3)C2)c(F)cn1` [compound 219, (S)-(5-(3,5-difluorophenyl)-4,5-dihydro-1H-pyrazol-1-yl)(3-((2-(1,4-dimethyl-1H-pyrazol-3-yl)-5-fluoropyridin-4-yl)oxy)azetidin-1-yl)methanone], the EC50 fell in the range of 0.1 to 100 nM.
